Reference: article PMC7700809 (Molecular Biomedicine, 2020)

Assays:
in vivo [1] = details: Sprague-Dawley, rat, lung, po
[2] = In vivo plasma pharmacokinetics in mice; details: for MRT last: read-out: MRT0-t; for MRT inf: read-out: MRT0-∞
Method: (§1) After dosage, blood samples were collected into heparinized tubes at 2, 5, 15, 30, 60, 120, 240, 360, 540, and 720 min for the i.v. group, and at 5, 15, 30, 60, 90, 120, 240, 360, 540, 720 and 1440 min for the i.g. group. Plasma (100 μL) was isolated from the blood sample by centrifuging at 4 °C and 6000 rpm for 3 min and then stored at − 80 °C until analysis. An aliquot of 100 μL of each plasma sample was mixed with 20 μL of internal standard working solution (200 ng/mL of caffeine). Methanol (400 μL) was then added for precipitation. After vortexing for 5 min and centrifuging at 14000 rpm for 10 min, 5 μL of the supernatant was injected for LC-MS/MS analysis.
(§2) The PK parameters were analyzed through the noncompartment model using WinNonlin 6.1 software (Pharsight Corporation, Mountain View, USA), including half-life (T1/2), the peak of the plasma concentration (Cmax), the time to peak of the plasma concentration (Tmax), the area under the plasma concentration-time curve during the period of observation (AUC0-t), the area under the plasma concentration-time curve from zero to infinity (AUC0-∞), clearance (CL), apparent volume of distribution (Vd), and the mean residence time.

[3] = Lung distribution in mice after oral administration
in vivo [4] = details: mouse, iv, 1 mg/kg, I.V. 1 mg/kg; for AUC(0-inf): AUC0-∞; for AUC(0-inf) / AUC(0-t) / Cmax / MRT last / MRT inf / Tmax: mice; for AUC(0-t): AUC0-t; for MRT last: MRT0-t; for MRT inf: MRT0-∞; for half-life: T1/2, mice
[5] = In vivo plasma pharmacokinetics in rats; set-up: species or system Sprague-Dawley rats; details: Rat; for MRT last: read-out: MRT0-t; for MRT inf: read-out: MRT0-∞
Method: as §1, §2

[6] = Sprague-Dawley, iv, I.V. 1 mg/kg
[7] = Sprague-Dawley, po, P.O. 10 mg/kg

## CC[C@H]1CN2CCc3cc(OC)c(OC)cc3[C@@H]2C[C@@H]1C[C@H]1NCCc2cc(OC)c(OC)cc21 [Emetine]
In vivo [1]; 1 mg/kg
  Tmax: 12 h
  concentration at 12 h: 1.61 µM
  concentration at 72 h: 0.36 µM
In vivo [1]; 1 mg/kg/day
  concentration at 1 h: 5 to 6 µM
  concentration at 72 h: 4.89 µM
[2]; I.V. 1 mg/kg
  AUMC0-t: 616 ± 181 hr*hr.*ng/mL
  AUMC0-∞: 3472 ± 1149 hr*hr.*ng/mL
[2]; P.O. 10 mg/kg
  AUMC0-t: 8355 ± 2710 hr*hr.*ng/mL
  AUMC0-∞: 36,666 ± 31,176 hr*hr.*ng/mL
  Cl: 143.5 ± 64.88 mL/min/kg
  Vz: 174,470 ± 45,790 mL/kg
[2]; male, mouse, iv, I.V. 1 mg/kg
  AUC(0-inf): 258 ± 71 ng·h/mL
  AUC(0-t): 120 ± 26 ng·h/mL
  C0: 172 ± 86 ng/mL
  Cmax: 111 ± 13.5 ng/mL
  Tmax: 0.03 h
  clearance: 68.6 mL/min/kg
  half-life: 6.24 ± 1.17 h
  MRT last: 5.06 ± 0.57 h
  MRT inf: 13.4 ± 1.37 h
[2]; male, mouse, iv, I.V. 1 mg/kg, read-out: Vz
  Vd: 38.4 L/kg
[2]; male, mouse, po, P.O. 10 mg/kg
  AUC(0-inf): 1340 ± 625 ng·h/mL
  AUC(0-t): 811 ± 208 ng·h/mL
  Cmax: 61.6 ± 15.1 ng/mL
  Tmax: 1.67 ± 0.58 h
  half-life: 15.9 ± 8.22 h
  MRT last: 10.2 ± 1.31 h
  MRT inf: 24.3 ± 10 h
[2]; male, mouse, po, P.O. 10 mg/kg vs I.V. 1 mg/kg, read-out: F (oral bioavailability)
  bioavailability: 52.1 ± 24.2%
[3]; 1 mg/kg (P.O.) single dose, 1 h
  Mice lung con.: 0.23 ± 0.04 ng/mL
[3]; 1 mg/kg (P.O.) single dose, 2 h
  Mice lung con.: 0.50 ± 0.35 ng/mL
[3]; 1 mg/kg (P.O.) single dose, 4 h
  Mice lung con.: 0.81 ± 0.16 ng/mL
[3]; 1 mg/kg (P.O.) single dose, 6 h
  Mice lung con.: 1.06 ± 0.09 ng/mL
[3]; 1 mg/kg (P.O.) single dose, 9 h
  Mice lung con.: 1.75 ± 0.28 ng/mL
[3]; 1 mg/kg (P.O.) single dose, 24 h
  Mice lung con.: 1.13 ± 0.18 ng/mL
[3]; 1 mg/kg (P.O.) single dose, 48 h
  Mice lung con.: 0.61 ± 0.09 ng/mL
[3]; 1 mg/kg (P.O.) single dose, 72 h
  Mice lung con.: 0.23 ± 0.06 ng/mL
[3]; 1 mg/kg (Q.D.× 3 days, P.O.), 1 h
  Mice lung con.: 6.17 ± 1.54 ng/mL
[3]; 1 mg/kg (Q.D.× 3 days, P.O.), 2 h
  Mice lung con.: 6.44 ± 0.96 ng/mL
[3]; 1 mg/kg (Q.D.× 3 days, P.O.), 4 h
  Mice lung con.: 6.73 ± 0.40 ng/mL
[3]; 1 mg/kg (Q.D.× 3 days, P.O.), 6 h
  Mice lung con.: 7.14 ± 2.10 ng/mL
[3]; 1 mg/kg (Q.D.× 3 days, P.O.), 9 h
  Mice lung con.: 7.46 ± 0.89 ng/mL
[3]; 1 mg/kg (Q.D.× 3 days, P.O.), 12 h
  Mice lung con.: 7.26 ± 0.93 ng/mL
[3]; 1 mg/kg (Q.D.× 3 days, P.O.), 24 h
  Mice lung con.: 4.61 ± 0.84 ng/mL
[3]; 1 mg/kg (Q.D.× 3 days, P.O.), 72 h
  Mice lung con.: 2.17 ± 0.42 ng/mL
[3]; in vivo animal PK study, species not named at the place
  retention time in lung tissue: over 12 h
[3]; mice, 1 mg/kg single oral dose
  time of maximum lung concentration: 12 h
[3]; mice, 1 mg/kg/day oral 3 days
  time of maximum lung concentration (Cmax): 9 h
In vivo [4]; male, Kidney
  AUC(0-inf): 99100 ng·h/mL
In vivo [4]; male, Lung
  AUC(0-inf): 65400 ng·h/mL
In vivo [4]; Kidney
  AUC(0-t): 37000 ng·h/mL
  Cmax: 4550 ng/mL
  MRT last: 5.23 h
  MRT inf: 28.4 h
  half-life: 20.9 h
  Tmax: 0.5 h
In vivo [4]; Liver
  AUC(0-t): 41300 ng·h/mL
  AUC(0-inf): 139000 ng·h/mL
  Cmax: 4420 ng/mL
  MRT last: 6.67 h
  MRT inf: 28 h
  half-life: 17.3 h
  Tmax: 9 h
In vivo [4]; Lung
  AUC(0-t): 35400 ng·h/mL
  Cmax: 8580 ng/mL
  MRT last: 5.13 h
  MRT inf: 15.9 h
  half-life: 11.5 h
  Tmax: 0.03 h
[5]; I.V. 1 mg/kg
  AUMC0-t: 131 ± 18 hr*hr.*ng/mL
  AUMC0-∞: 320 ± 141 hr*hr.*ng/mL
[5]; P.O. 10 mg/kg
  AUMC0-t: 1989 ± 15 hr*hr.*ng/mL
  AUMC0-∞: 3676 ± 1871 hr*hr.*ng/mL
  Cl: 45,918 ± 5515 mL/hr./kg
[5]; [6]
  AUC(0-inf): 39.8 ± 11.3 ng·h/mL
  AUC(0-t): 29.8 ± 6.1 ng·h/mL
  C0: 33.5 ± 2.4 ng/mL
  Cmax: 26.9 ± 4.8 ng/mL
  Tmax: 0.03 h
  clearance: 445 mL/min/kg
  half-life: 4.46 ± 1.18 h
  MRT last: 4.41 ± 0.31 h
  MRT inf: 7.76 ± 1.81 h
[5]; Sprague-Dawley, iv, I.V. 1 mg/kg, read-out: Vz
  Vd: 163 L/kg
[5]; [7]
  AUC(0-inf): 220 ± 28 ng·h/mL
  AUC(0-t): 172 ± 18 ng·h/mL
  Cmax: 12.2 ± 3.3 ng/mL
  Tmax: 9 h
  half-life: 5.16 ± 4.16 h
  MRT last: 11.6 ± 1.33 h
  MRT inf: 16.2 ± 6 h
[5]; Sprague-Dawley, po, P.O. 10 mg/kg vs I.V. 1 mg/kg, read-out: F (oral bioavailability)
  bioavailability: 55.3 ± 7.1%
